Assay results reported in patent publication US8759390B2, “Chromene modulators of chemokine receptor activity” (Bristol-Myers Squibb Company, priority 2008, dated 2014).
pKi: −log10 of the molar value. Counter-ions that a name gives are not always drawn.

Each compound was assayed against T1, CCR2 (Homo sapiens, UniProt P41597) (assay: CCR2 binding (125I-human MCP-1 competition on human PBMC / THP-1 cells)). Conditions: n = 1 unless otherwise noted; tested in one of the assays described.
T1 construct: THP-1 human monocytic leukemic cell line, which expresses endogenous CCR2; endogenous in cells; host or cells: THP-1 human monocytic leukemia cells, or human PBMC / human monocytes
T1 sequence (P41597 1-360 isoform P41597-2): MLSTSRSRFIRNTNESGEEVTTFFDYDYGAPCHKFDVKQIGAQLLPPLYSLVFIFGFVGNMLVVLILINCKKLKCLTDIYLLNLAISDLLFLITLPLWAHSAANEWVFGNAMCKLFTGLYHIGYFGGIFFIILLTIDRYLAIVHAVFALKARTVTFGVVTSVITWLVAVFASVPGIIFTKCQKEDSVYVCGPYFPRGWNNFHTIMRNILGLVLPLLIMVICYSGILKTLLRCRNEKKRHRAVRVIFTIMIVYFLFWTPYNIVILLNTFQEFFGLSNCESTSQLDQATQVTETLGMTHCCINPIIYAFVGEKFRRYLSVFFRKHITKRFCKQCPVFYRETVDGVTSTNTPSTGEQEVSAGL
Procedure: Antagonism of MCP-1 Binding to Human PBMC
Millipore filter plates (#MABVN1250) are treated with 100 μl of binding buffer (0.5% bovine serum albumin, 20 mM HEPES buffer and 5 mM magnesium chloride in RPMI 1640 media) for thirty minutes at room temperature. To measure binding, 50 μl of binding buffer, with or without a known concentration compound, is combined with 50 μl of ^125-I labeled human MCP-1 (to give a final concentration of […] radioligand) and 50 μl of binding buffer containing 5×10^5 cells. Cells used for such binding assays can include human peripheral blood mononuclear cells isolated by Ficoll-Hypaque gradient centrifugation, human monocytes (Weiner et al., J. Immunol. Methods. 1980, 36, 89), or the THP-1 cell line which expresses the endogenous receptor. The mixture of compound, cells and radioligand are incubated at room temperature for thirty minutes. Plates are placed onto a vacuum manifold, vacuum applied, and the plates washed three times with binding buffer containing 0.5M NaCl. The plastic skirt is removed from the plate, the plate allowed to air dry, the wells punched out and counted. The percent inhibition of binding is calculated using the total counts obtained in the absence of any competing compound and the background binding determined by addition of 100 nM MCP-1 in place of the test compound.
THP-1 Monocytic Cell Binding: Whole Cell-Based Assay
The human CCR2 binding assay was also established with the THP-1 human monocytic leukemic cell line, which expresses endogenous CCR2, using ^125I-human MCP-1 as the tracer ligand. Radioligand competition binding assays were used for assessment of binding affinity of test compounds to the CCR2 receptor. For radioligand competition studies, 100 μl containing 2.5×10^5 THP-1 cells/well (in assay buffer containing 50 mM HEPES, pH7.4, 5mM MgCl2, 1 mM CaCl2 and 0.5% BSA) were added to 96-well assay plates containing the test compounds in 3-fold serial dilution, with final concentrations ranging from 5 μM to […]. Subsequently, 50 μl ^125I-MCP-1 radioligand at a final concentration of 0.2 nM in assay buffer were added to the reaction. After a 90 minute incubation period at room temperature, the binding reaction was terminated by harvesting on GF/B filter plates (PerkinElmer Cat. No. 6005177) followed by washing with ice-cold wash buffer (50 mM HEPES, pH 7.4, 0.1% BSA, 0.5 M NaCl) to remove unbound ligand. After washing, the plate was dried for 45 minutes at 60° C. followed by addition of 40 μl MicroScint 20 scintillation fluid, sealed and analyzed by the Packard TopCount reader. Non-specific binding was determined in the presence of 10 μM (a molar excess of […]) of an in-house CCR2 small molecule antagonist (CCR2 IC50=2 nM). Specific binding of ^125I-MCP-1 was calculated as the difference between total and non-specific binding. The competition data was plotted as a percentage inhibition of radioligand specific bound in the absence of test compound (percent of total signal). After correcting for non-specific binding, IC50 values were determined The IC50 is defined as the concentration of test compound required to reduce ^125I-MCP-1 specific binding by 50% and was calculated using the four parameter logistic equation to fit the normalized data.

First: O=C(O)C1=Cc2ccccc2OC1c1ccc(Br)c(Br)c1 (racemic) [Example 5-17, 2-(3,4-dibromophenyl)-2H-chromene-3-carboxylic acid]
Second: O=C(O)C1=Cc2ccccc2OC1c1ccc(Cl)c(Br)c1 (racemic) [Example 7-4, 2-(3-bromo-4-chlorophenyl)-2H-chromene-3-carboxylic acid]
The pKi of the first is 0.30 log units higher: 7.07 for the first, 6.77 for the second. The first binds more tightly here.

Compared with O=C(O)C1=Cc2ccc(Br)cc2OC1c1ccc(Cl)c(Cl)c1 (racemic) [Example 9-5, 2-(3,4-dichlorophenyl)-7-bromo-2H-chromene-3-carboxylic acid], O=C(O)C1=Cc2ccc(F)cc2OC1c1ccc(Cl)c(Cl)c1 (racemic) [Example 9-1, 2-(3,4-dichlorophenyl)-7-fluoro-2H-chromene-3-carboxylic acid] is 0.32 log units higher in pKi: 6.14 for the first, 6.46 for the second. The second binds more tightly here.

Compared with O=C(O)C1=Cc2ccccc2OC1c1cnc(Cl)c(Cl)c1 (racemic) [Example 7-3, 2-(5,6-dichloropyridin-3-yl)-2H-chromene-3-carboxylic acid], O=C(O)C1=Cc2ccccc2OC1c1ccc(Cl)c(Cl)c1 (single isomer, unassigned; (+)) [Example 6b, (+)-2-(3,4-dichlorophenyl)-2H-chromene-3-carboxylic acid] is 0.47 log units lower in pKi: 6.24 for the first, 5.77 for the second. The first binds more tightly here.

O=C(O)C1=Cc2cc(F)ccc2OC1c1ccc(Cl)c(Cl)c1 (racemic) [Example 9-4, 2-(3,4-dichlorophenyl)-6-fluoro-2H-chromene-3-carboxylic acid] and O=C(O)C1=Cc2cc(Cl)ccc2OC1c1ccc(Cl)c(Cl)c1 (racemic) [Example 9-2, 2-(3,4-dichlorophenyl)-6-chloro-2H-chromene-3-carboxylic acid] are within 0.2 log units of each other in pKi: 6.47 for the first, 6.52 for the second.

First: O=C(O)C1=Cc2ccccc2OC1c1ccc(Cl)c(F)c1 (racemic) [Example 5-7, 2-(3-fluoro-4-chlorophenyl)-2H-chromene-3-carboxylic acid]
Second: O=C(O)C1=Cc2ccccc2OC1c1ccc(F)c(Cl)c1 (racemic) [Example 5-8, 2-(3-chloro-4-fluorophenyl)-2H-chromene-3-carboxylic acid]
The pKi of the first is 0.29 log units higher: 6.54 for the first, 6.25 for the second. The first binds more tightly here.

Compared with O=C(O)C1=Cc2ccccc2OC1c1cccc(C(F)(F)F)n1 (racemic) [Example 5-25, 2-(6-trifluoromethyl-pyridin-2-yl)-2H-chromene-3-carboxylic acid], O=C(O)C1=Cc2ccccc2OC1c1cccc(C(F)(F)F)c1 (racemic) [Example 5-9, 2-(3-trifluoromethylphenyl)-2H-chromene-3-carboxylic acid] is 0.72 log units higher in pKi: 5.08 for the first, 5.80 for the second.

Going from CC1(c2ccc(Cl)c(Cl)c2)Oc2ccccc2C=C1C(=O)O (racemic) [Example 4-1, 2-(3,4-dichlorophenyl)-2-methyl-2H-chromene-3-carboxylic acid] to CCC1(c2ccc(Cl)c(Cl)c2)Oc2ccccc2C=C1C(=O)O (racemic) [Example 4-2, 2-(3,4-dichlorophenyl)-2-ethyl-2H-chromene-3-carboxylic acid], the pKi falls from 6.66 to 5.92 (0.74 log units).

Going from O=C(O)C1=Cc2ccccc2OC1c1ccc2c(c1)OCO2 (racemic) [Example 3, 2-(benzo[d][1,3]dioxol-5-yl)-2H-chromene-3-carboxylic acid] to O=C(O)C1=Cc2ccccc2OC1c1ccc(F)c(F)c1 (racemic) [Example 5-11, 2-(3,4-difluorophenyl)-2H-chromene-3-carboxylic acid], the pKi falls from 5.96 to 5.07 (0.89 log units). The first binds more tightly here.

Compared with O=C(O)C1=Cc2ccccc2OC1c1ccc(C(F)(F)F)c(Cl)c1 (racemic) [Example 7-5, 2-(3-chloro-4-trifluoromethyl-phenyl)-2H-chromene-3-carboxylic acid], O=C(O)C1=Cc2ccccc2OC1c1ccc(C(F)(F)F)c(F)c1 (racemic) [Example 5-18, 2-(3-fluoro-4-trifluoromethylphenyl)-2H-chromene-3-carboxylic acid] is 0.27 log units lower in pKi: 6.41 for the first, 6.14 for the second. The first binds more tightly here.

Going from O=C(O)C1=Cc2ccccc2OC1c1cccc(Cl)c1 (racemic) [Example 1, 2-(3-chlorophenyl)-2H-chromene-3-carboxylic acid] to O=C(O)C1=Cc2ccccc2OC1c1cccc(F)c1 (racemic) [Example 5-6, 2-(3-fluorophenyl)-2H-chromene-3-carboxylic acid], the pKi falls from 5.70 to 5.24 (0.46 log units).

Compared with O=C(O)C1=Cc2ccccc2OC1c1ccc(F)c(C(F)(F)F)c1 (racemic) [Example 5-24, 2-(3-trifluoromethyl-4-fluoro-phenyl)-2H-chromene-3-carboxylic acid], Cc1cc(C2Oc3ccccc3C=C2C(=O)O)ccc1Cl (racemic) [Example 5-14, 2-(3-methyl-4-chlorophenyl)-2H-chromene-3-carboxylic acid] is 0.84 log units higher in pKi: 5.96 for the first, 6.80 for the second. The second binds more tightly here.

Compared with O=C(O)C1=Cc2ccc3ccccc3c2OC1c1ccc(Cl)c(Cl)c1 (racemic) [Example 9-3, 2-(3,4-dichlorophenyl)-2H-benzo[h]chromene-3-carboxylic acid], COc1ccc2c(c1)OC(c1ccc(Cl)c(Cl)c1)C(C(=O)O)=C2 (racemic) [Example 9-6, 2-(3,4-dichlorophenyl)-7-methoxy-2H-chromene-3-carboxylic acid] is 0.60 log units higher in pKi: 5.92 for the first, 6.52 for the second.

Compared with O=C(O)C1=Cc2ccccc2OC1c1ccc(Br)cc1 (racemic) [Example 5-15, 2-(4-bromophenyl)-2H-chromene-3-carboxylic acid], Cc1ccc(C2Oc3ccccc3C=C2C(=O)O)cc1 (racemic) [Example 5-19, 2-(4-methylphenyl)-2H-chromene-3-carboxylic acid] is 1.02 log units lower in pKi: 6.37 for the first, 5.35 for the second. The first binds more tightly here.

First: O=C(O)C1=Cc2ccccc2OC1c1cccc([N+](=O)[O-])c1 (racemic) [Example 5-12, 2-(3-nitrophenyl)-2H-chromene-3-carboxylic acid]
Second: O=C(O)C1=Cc2ccccc2OC1c1cccc(Br)c1 (racemic) [Example 5-16, 2-(3-bromophenyl)-2H-chromene-3-carboxylic acid]
The pKi of the first is 0.22 log units lower: 5.55 for the first, 5.77 for the second.

First: COc1ccc(C2Oc3ccccc3C=C2C(=O)O)cc1 (racemic) [Example 2-3, 2-(4-methoxyphenyl)-2H-chromene-3-carboxylic acid]
Second: O=C(O)C1=Cc2ccccc2OC1c1ccc(Cl)cc1 (racemic) [Example 2-2, 2-(4-chlorophenyl)-2H-chromene-3-carboxylic acid]
The pKi of the first is 0.74 log units lower: 5.28 for the first, 6.02 for the second.

First: O=C(O)C1=Cc2ccccc2OC1c1ccncc1 (racemic) [Example 5-3, 2-(pyridin-4-yl)-2H-chromene-3-carboxylic acid trifluoroacetic acid salt]
Second: O=C(O)C1=Cc2ccccc2OC1c1ccc(Cl)nc1 (racemic) [Example 7-2, 2-(6-chloropyridin-3-yl)-2H-chromene-3-carboxylic acid]
The pKi of the first is 0.39 log units higher: 5.74 for the first, 5.35 for the second.

First: O=C(O)C1=Cc2ccccc2OC1c1ccccn1 (racemic) [Example 5-21, 2-(pyridin-2-yl)-2H-chromene-3-carboxylic acid]
Second: O=C(O)C1=Cc2ccccc2OC1c1cccc(Cl)c1Cl (racemic) [Example 5-26, 2-(2,3-dichlorophenyl)-2H-chromene-3-carboxylic acid]
The pKi of the first is 0.26 log units higher: 5.85 for the first, 5.59 for the second. The first binds more tightly here.

Compared with O=C(O)C1=Cc2ccccc2OC1c1cc(Cl)cc(Cl)c1 (racemic) [Example 2-4, 2-(3,5-dichlorophenyl)-2H-chromene-3-carboxylic acid], O=C(O)C1=Cc2ccccc2OC1c1ccc(Cl)c([N+](=O)[O-])c1 (racemic) [Example 5-13, 2-(3-nitro-4-chlorophenyl)-2H-chromene-3-carboxylic acid] is 1.29 log units higher in pKi: 5.35 for the first, 6.64 for the second. The second binds more tightly here.
